Experimental data taken from ChEMBL document CHEMBL1177743, “Symbiopolyol, a VCAM-1 inhibitor from a symbiotic dinoflagellate of the jellyfish Mastigias papua” (J Nat Prod, 2010).

Legend:
HUVEC [1] = test: Toxicity in HUVEC up to 12 uM; type: cell-based; conditions: human
HUVEC [2] = test: Inhibition of VCAM1 expression in TNF-alpha-stimulated HUVEC pretreated 30 mins before TNFalpha challenge for 18 hrs by ELISA; type: functional, cell-based; conditions: Homo sapiens
[3] = biological target: T1, Vascular cell adhesion protein 1 (Homo sapiens) (UniProt P19320); test: Inhibition of VCAM1 in TNF-alpha/IL4-stimulated HUVEC assessed as inhibition of cell adhesion between HUVEC and Ramos cells at 8 uM after 20 hrs incubation relative to untreated control; type: cell-based
T1 sequence (whole entry): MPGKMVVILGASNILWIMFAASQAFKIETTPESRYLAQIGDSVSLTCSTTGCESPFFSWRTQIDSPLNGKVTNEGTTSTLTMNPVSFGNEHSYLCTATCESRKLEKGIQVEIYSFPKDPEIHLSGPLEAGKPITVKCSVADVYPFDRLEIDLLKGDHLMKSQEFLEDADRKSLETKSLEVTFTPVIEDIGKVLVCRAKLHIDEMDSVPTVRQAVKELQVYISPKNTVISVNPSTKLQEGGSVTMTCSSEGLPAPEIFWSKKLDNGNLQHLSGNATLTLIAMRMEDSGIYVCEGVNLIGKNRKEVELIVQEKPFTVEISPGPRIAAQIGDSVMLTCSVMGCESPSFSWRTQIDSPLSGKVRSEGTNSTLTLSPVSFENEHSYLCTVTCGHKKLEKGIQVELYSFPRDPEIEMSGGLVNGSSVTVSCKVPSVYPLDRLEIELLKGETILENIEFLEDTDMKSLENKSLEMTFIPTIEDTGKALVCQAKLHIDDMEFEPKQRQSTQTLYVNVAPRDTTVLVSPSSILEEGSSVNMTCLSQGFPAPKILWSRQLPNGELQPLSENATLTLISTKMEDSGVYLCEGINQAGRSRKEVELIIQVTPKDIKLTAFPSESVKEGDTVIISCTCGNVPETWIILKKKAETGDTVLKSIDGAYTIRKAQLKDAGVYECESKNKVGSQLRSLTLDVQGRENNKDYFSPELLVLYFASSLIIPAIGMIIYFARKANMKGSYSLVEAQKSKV

inhibition [3]: 77%
SMILES: C=CCC/C=C/C=C/C=C/CC/C=C/[C@@H](O)[C@H](O)[C@@H]1O[C@@H]([C@H](O)[C@@H](O)C(=C)CC[C@@H](O)[C@H]2C[C@@H](O)[C@@H](O)[C@H]([C@@H](O)[C@H](O)/C=C(\C)CC[C@H](O)C[C@H](O)[C@H](O)C(C)C(O)C(O)C/C=C/CC(O)/C=C/CCCCCOS(=O)(=O)[O-])O2)C[C@@H](O)[C@H]1O.[Na+] (stereo partly drawn) [SYMBIOPOLYOL]
Activity (HUVEC [1]): Non-toxic | IC50 (HUVEC [2]): 6.62 µM
